Results as given in a melting point compilation (Tetko et al.; mined from patent text by program, amines drawn as free bases though some values may be those of a salt).

SMILES	melting point
Cc1nnc(-c2sc(N3CCN(Cc4ccc(C(F)(F)F)cc4)C3=O)nc2C)[nH]1	273 to 274 °C
O=C(O)CCc1cn(Cc2ccc3cc(OCc4cccnc4)ccc3c2)cc1-c1ccccc1	158 to 159 °C
CS(=O)(=O)NCc1ccc2[nH]cc(CC#N)c2c1	106 to 109 °C
CS(=O)(=O)c1ccc(C(=O)O)c(F)c1	187 to 188 °C
CCN1C=C2C=C(S)N=CN2N1	251 to 254 °C
Cc1oc(-c2ccccc2)nc1COc1ccccc1CCl	103 to 104 °C
CC(C)n1cc(C2(c3ccc(F)c(Br)c3)N=C(N)N(C)C2=O)cn1 (stereo not drawn)	80 to 82 °C
CC(C)(C)OC(=O)NC(C)(CO)C(=O)OC(C)(C)C (stereo not drawn)	44 to 45 °C
Cc1[nH]c(C(=O)NCCc2ccccn2)c(C)c1-c1nc2ccc(C(=O)c3ccccc3)cc2[nH]1	238 to 244 °C
Cn1cc(-c2ccnc(Cl)n2)c(-c2ccc(Cl)cc2Cl)n1	165 to 166 °C
O=S1CCON=C1c1ccc(Cl)s1 (stereo not drawn)	102 °C
O=C1CCN(c2ccccc2)C(=O)C1=C1SC=CS1	150 to 152 °C
O=COCCCN1C(=O)c2ccccc2C1=O	68 to 70 °C
COC(=O)c1ccc2c(c1)C(=O)c1ccccc1CO2	128 to 129 °C
C=CCNc1c(CO)cnc2cn(C)nc12	151 to 159 °C
CC(C)(C)Nc1c(NCc2ccc(F)cc2)c(=O)c1=O	296 to 298 °C
O=C(O)Cc1cc(F)cc(Cc2nc3c(F)c(F)cc(F)c3s2)c1	139 to 142 °C
N#Cc1cc(O)cc(OCCc2ccccn2)c1N	149 to 150 °C
CC(=O)Nc1nc(-c2ccc([N+](=O)[O-])cc2)c[nH]1	242 to 244 °C
CC1NC(=O)NN=C1c1ccc(S(N)(=O)=O)cc1 (stereo not drawn)	259 to 264 °C

SMILES	melting point
CCOc1nn(-c2ccc(C(F)(F)F)cn2)cc1CCCOc1cccc(CCC(=O)O)c1	88 to 89 °C
COc1cc(C)c(C2=C(C)CN(O)C=C2C)c(C)c1	194 to 195 °C
COc1ccc(C(C)=O)c2cccc(S(=O)(=O)N(C)C)c12	124 to 127 °C
NS(=O)(=O)NCC1COc2ccccc2O1 (stereo not drawn)	97.5 to 98.5 °C
Cc1ccnc2c(Oc3ccc(N)cc3)cccc12	157 to 159 °C
Cn1c2ccccc2c2c(=O)[nH]ccc21	242 °C
C[Si](C)(C)CC(O)(Cn1nc[nH]c1=S)c1ccc(F)cc1 (stereo not drawn)	107 °C
O=[N+]([O-])c1ccc(Oc2ccccc2)nc1	84 to 86 °C
Cc1c(C)c2c(c(C)c1N)C(c1ccccc1)CO2 (stereo not drawn)	94 to 95 °C
Cc1nc(N)c2nc(C)n(CCOCc3ccccc3)c2c1C	137 to 138 °C
Nc1nc(N)c2ncn(COCCOC=O)c2n1	238 to 240 °C
CC1=C(c2c[nH]c(-c3ccc(F)cc3)c2-c2ccncc2)CCN2CCC[C@@H]12	233 to 234 °C
O=C(O)Cc1ccc(CCNS(=O)(=O)c2ccc(Cl)cc2)s1	138 °C
COC(=O)C=Cc1ccc2c(ccn2S(=O)(=O)c2ccccc2)c1	134 to 136 °C
CS(=O)(=O)C(=C1CN(C(c2ccccc2)c2ccccc2)C1)c1ccc(F)cc1	186 °C
O=C(c1ccc(O)cc1)c1c(-c2ccccc2)ccc2ccccc12	204 to 205 °C
COc1cc(C)c2nc3cccc(OC)c3nc2c1	201 to 202 °C
CC(C)c1c(Sc2cccc(Cl)c2)nc(COC(N)=O)n1C	145 to 146 °C
O=C(Cn1c(-c2ccc(Cl)cc2)nc2cccnc21)N(c1ccccc1)c1ccccc1	176 to 178 °C
CCS(=O)(=O)c1cnc(Cl)c(Cl)c1	141 to 142 °C

SMILES	melting point
COc1ccc(CCSc2c(O)cc(-c3ccccc3)oc2=O)cc1	144 to 145 °C
Clc1ccc(C#Cc2ccccc2)cn1	70 to 72 °C
CC(C)(C)c1cc(C2N[C@H](C(=O)O)CS2)cc(C(C)(C)C)c1O (stereo partly drawn)	163 to 165 °C
COCCN(CCOC)c1nc2cc(-c3ccc(Cl)cc3)nnc2c2ccccc12	123 to 125 °C
CS(=O)(=O)NCc1cccc(-c2nc(=O)c3ccccc3s2)n1	188 to 190 °C
O=C(NC(=O)c1c(F)cccc1F)Nc1ccc(SC(F)(F)C(F)F)cc1F	177 to 179 °C
CC(C)c1nc2cc(COc3ccc(C=C4SC(=O)NC4=O)cc3)ccc2o1	219 to 221 °C
CN(CC(=O)NC1(c2ccccc2Cl)C(=O)Nc2ccc(Cl)cc21)CC(=O)OC(C)(C)C (stereo not drawn)	200 °C
COc1ccc(Oc2cccc3ncnc(NC(=O)Nc4ccccc4)c23)cc1	231 to 232 °C
CN(C)CC/C=C1/c2cc(Br)ccc2COc2ccccc21	91 to 100 °C
Cc1c(-c2ccccc2)c(N2CC[C@H](N(C)C)C2)c2oc(-c3ccccc3O)nc2c1C#N	159 to 162 °C
O=C1Cc2cc(F)ccc2C(c2ccc(Cl)cc2)N1 (stereo not drawn)	160 to 161 °C
N#Cc1ccccc1C(C#N)c1ccc(F)cc1 (stereo not drawn)	87 to 89 °C
O=c1ccc(C(F)(F)F)cn1-c1ccc(NCCCl)cc1Cl	160 to 162 °C
CCCCOC1C=CC(=O)N1S(=O)(=O)c1cccs1 (stereo not drawn)	56 to 57 °C
COc1ccc(C2=C(C#N)C(c3cccc4nonc34)c3c[nH]nc3N2)cc1 (stereo not drawn)	244 °C
COCc1nnc(-c2cccnc2)n1-c1c(C)c(Cl)cc2[nH]c(=O)c(=O)[nH]c12	> 300 °C
FC(F)(F)Sc1c(Cl)c(Cl)c(CBr)c(Cl)c1Cl	117 to 118 °C

Other lines, results leading:

melting point	SMILES
320 °C	CCOC(=O)c1cn(C)c2nc3c(F)c(F)c(F)cc3cc2c1=O
76 to 77 °C	CCCc1cccc(N(CC(=O)OC)NC(=O)NC)c1
91 °C	COc1cccc(C(=O)O)c1CCc1cccc(Cl)c1
208 °C	NC(=O)CCCCCNC(N)=O
81 to 83 °C	CC(=O)OCCC(=C(c1ccccc1)c1ccccc1)c1ccccc1
78 to 79 °C	Fc1ccc(C(OCCCN2CCN(C(c3ccccc3)c3ccccc3)CC2)c2ccc(F)cc2)cc1
112 to 115 °C	COC(=O)C(O)C(Sc1cc(Oc2cccc(C)c2)ccc1N)c1ccc(OC)cc1 (stereo not drawn)
246 to 248 °C	O=C(Nc1nnc(C2CC2)o1)C1c2ccccc2Oc2ccccc21
115 to 117 °C	CC(C)c1cc(OS(C)(=O)=O)cc(C(C)C)c1NC(=O)CN1CCN(CCSc2nc3ccccc3o2)CC1
213 °C	Cc1cccc(N2CCN(CCc3ccc(N4CCCNC4=O)cc3)CC2)c1
83 to 85 °C	O=C1NC(C(=O)NCCCO[N+](=O)[O-])CS1 (stereo not drawn)
114 to 116 °C	CCOC(=O)c1c(CCCn2cncn2)nc2sc3c(c2c1-c1ccc(OC)c(OC)c1)CCN(C(=O)c1ccc(Cl)cc1)C3
154 to 155 °C	O=C(O)c1ccccc1COc1cccc(Cl)c1
237 to 239 °C	COc1cc2c3c(cccc3c1CNC(C)=O)C(=O)N(O)C2=O
206 to 208 °C	COc1ccc(C2CCC(C(=O)O)CC2)c2c1OCO2 (stereo not drawn)
90 to 93 °C	C=CC[C@@H]1[C@H](O)[C@@H](O)C(=O)N1Cc1ccccc1 (relative stereo)
229 to 231 °C	N#Cc1cccc(C(=O)N[C@H]2C[C@H](C(=O)O)Nc3cc(Cl)cc(Cl)c32)c1 (relative stereo)
104 to 105 °C	CCOC(=O)CCC12CCC(=O)N1C(=O)CC2
218 to 219 °C	CC(C)(C)OC(=O)N[C@@H](Cc1ccccc1)[C@@H](O)C[C@@H](Cc1ccc(O)cc1)C(=O)N[C@H]1c2ccccc2C[C@H]1O
89 to 91 °C	CC(C)(C)OC(=O)NCc1ccc(CC(=O)O)cc1
185 to 187 °C	O=C(NCc1ccccc1C(=O)O)c1cccc(/C=C/c2nc(C3CCC3)cs2)c1
194 to 198 °C	O=C(c1ccc(Cl)c([N+](=O)[O-])c1)c1cnc(NC2CCCCC2)s1
139 to 140 °C	O=C1CC(c2cccc3oc4c(c23)CCCC4)CC(=O)O1

melting point	SMILES
141 to 142 °C	CNC(=O)Nc1ccsc1C(=O)OC
157 °C	CC(C)(CO)NC(=O)c1ccncc1C1=CCCc2ccccc21
221 to 224 °C	CC(=O)OCCn1c2c(c3ccccc3c1=O)C(=O)c1ccccc1-2
123 to 125 °C	COC(=O)CC(=O)/C=C/c1c(-c2ccc(F)cc2)n(C(C)C)c(=O)c2ccccc12
62 to 63.5 °C	CCCN(CCC)C(=O)n1cnc(S(=O)(=O)CC(C)C)n1
107 °C	COCCNC(=O)C1CCCN1S(=O)(=O)c1ccc(Cl)c(COc2cccc3ccc(C)nc23)c1Cl (stereo not drawn)
87 to 88 °C	N#Cc1cc(N2CCCCC2)ccc1N
99 to 101 °C	CCOC(=O)[C@H](Cc1ccc([N+](=O)[O-])cc1)NC(=O)c1ccccc1
105 to 108 °C	O=C(OCC1OC(OCc2ccccc2)C(OCc2ccccc2)C(OCc2ccccc2)C1OCc1ccccc1)c1ncc[nH]1 (stereo not drawn)
38 to 39 °C	COc1ccc2cc(C(C)CC(C)=O)cc(F)c2c1 (stereo not drawn)
195 to 196 °C	CC(C)(C)OC(=O)N1CCCC(Nc2cc(Cl)n[nH]c2=O)C1 (stereo not drawn)
206 to 210 °C	NC(=O)c1sc2nccc(N3CCCN(c4ccccc4Cl)CC3)c2c1N
210 to 212 °C	COC(=O)c1ccccc1S(=O)(=O)NC(=O)c1cnc2c(C)cc(C)nn12
10 °C	CC1(C)CCC(C)(C)c2cc(C(O)CCC(=O)O)ccc21 (stereo not drawn)
238 to 242 °C	Cn1ncnc1-n1cc(C(=O)O)c(=O)c2cc(F)c(Cl)nc21
173 to 175 °C	CC(O)c1cc(S(N)(=O)=O)sc1S(=O)(=O)c1ccc(O)cc1 (stereo not drawn)
180 to 182 °C	CCOCCOc1cccc(-c2ccc3c(c2)C=C(C(=O)Nc2ccc(CN(C)C4CCOCC4)cc2)CCS3(=O)=O)c1
114 to 115 °C	C=CCOC(=O)C1N2C(=O)C(NC(=O)CC(=O)OCC)C2S(=O)(=O)C1(C)C (stereo not drawn)
129 to 131 °C	CCCN(CCC)CC(=O)Nc1ncc(Oc2cc(I)c(OC)cc2C(C)C)c(N)n1
283 to 285 °C	NC(C(=O)O)c1ccsc1 (stereo not drawn)
184 to 185 °C	O=C(CN1CCC(c2noc3cc(F)ccc23)CC1)N1Cc2ccccc2C1
108 to 110 °C	O=C(NOCC(O)CN1CCCCC1)NC1CCCCC1 (stereo not drawn)
